Test results reported in article PMC5469273, “Discovery of Novel Small-Molecule Inhibitors of LIM Domain Kinase for Inhibiting HIV-1” (Journal of Virology, 2017).

Experiments:
[1] = tested on: HIV-1(Env); assay type: cell-based
[2] = tested on: HSV-1; assay: HSV-1 plaque assay in Vero cells; assay type: cell-based, herpes simplex virus 1
[3] = tested on: Rev-CEM-GFP-Luc cells; conditions: 4 h treatment; all concentrations tested up to 200 μM
[4] = biological target: ALK (Homo sapiens, UniProt Q9UM73); assay: Kinase profiling (Reaction Biology): ALK
[5] = biological target: JNK3 (Homo sapiens, UniProt P53779); assay: Kinase profiling (Reaction Biology): JNK3
[6] = biological target: PKCa (Homo sapiens, UniProt P17252); assay: Kinase profiling (Reaction Biology): PKCa
[7] = biological target: ROCK1 (Homo sapiens, UniProt Q13464); assay: Kinase profiling (Reaction Biology): ROCK1
[8] = biological target: STK33 (Homo sapiens, UniProt Q9BYT3); assay: Kinase profiling (Reaction Biology): STK33
[9] = tested on: Jurkat T cells; assay: SDF-1-mediated chemotaxis assay (transwell); conditions: Homo sapiens, 2 h, read-out: IC50, inhibition of Jurkat T cell chemotaxis, SDF-1 40 ng/ml, 2 h, transwell

Chain of ALK (Q9UM73 19-1620): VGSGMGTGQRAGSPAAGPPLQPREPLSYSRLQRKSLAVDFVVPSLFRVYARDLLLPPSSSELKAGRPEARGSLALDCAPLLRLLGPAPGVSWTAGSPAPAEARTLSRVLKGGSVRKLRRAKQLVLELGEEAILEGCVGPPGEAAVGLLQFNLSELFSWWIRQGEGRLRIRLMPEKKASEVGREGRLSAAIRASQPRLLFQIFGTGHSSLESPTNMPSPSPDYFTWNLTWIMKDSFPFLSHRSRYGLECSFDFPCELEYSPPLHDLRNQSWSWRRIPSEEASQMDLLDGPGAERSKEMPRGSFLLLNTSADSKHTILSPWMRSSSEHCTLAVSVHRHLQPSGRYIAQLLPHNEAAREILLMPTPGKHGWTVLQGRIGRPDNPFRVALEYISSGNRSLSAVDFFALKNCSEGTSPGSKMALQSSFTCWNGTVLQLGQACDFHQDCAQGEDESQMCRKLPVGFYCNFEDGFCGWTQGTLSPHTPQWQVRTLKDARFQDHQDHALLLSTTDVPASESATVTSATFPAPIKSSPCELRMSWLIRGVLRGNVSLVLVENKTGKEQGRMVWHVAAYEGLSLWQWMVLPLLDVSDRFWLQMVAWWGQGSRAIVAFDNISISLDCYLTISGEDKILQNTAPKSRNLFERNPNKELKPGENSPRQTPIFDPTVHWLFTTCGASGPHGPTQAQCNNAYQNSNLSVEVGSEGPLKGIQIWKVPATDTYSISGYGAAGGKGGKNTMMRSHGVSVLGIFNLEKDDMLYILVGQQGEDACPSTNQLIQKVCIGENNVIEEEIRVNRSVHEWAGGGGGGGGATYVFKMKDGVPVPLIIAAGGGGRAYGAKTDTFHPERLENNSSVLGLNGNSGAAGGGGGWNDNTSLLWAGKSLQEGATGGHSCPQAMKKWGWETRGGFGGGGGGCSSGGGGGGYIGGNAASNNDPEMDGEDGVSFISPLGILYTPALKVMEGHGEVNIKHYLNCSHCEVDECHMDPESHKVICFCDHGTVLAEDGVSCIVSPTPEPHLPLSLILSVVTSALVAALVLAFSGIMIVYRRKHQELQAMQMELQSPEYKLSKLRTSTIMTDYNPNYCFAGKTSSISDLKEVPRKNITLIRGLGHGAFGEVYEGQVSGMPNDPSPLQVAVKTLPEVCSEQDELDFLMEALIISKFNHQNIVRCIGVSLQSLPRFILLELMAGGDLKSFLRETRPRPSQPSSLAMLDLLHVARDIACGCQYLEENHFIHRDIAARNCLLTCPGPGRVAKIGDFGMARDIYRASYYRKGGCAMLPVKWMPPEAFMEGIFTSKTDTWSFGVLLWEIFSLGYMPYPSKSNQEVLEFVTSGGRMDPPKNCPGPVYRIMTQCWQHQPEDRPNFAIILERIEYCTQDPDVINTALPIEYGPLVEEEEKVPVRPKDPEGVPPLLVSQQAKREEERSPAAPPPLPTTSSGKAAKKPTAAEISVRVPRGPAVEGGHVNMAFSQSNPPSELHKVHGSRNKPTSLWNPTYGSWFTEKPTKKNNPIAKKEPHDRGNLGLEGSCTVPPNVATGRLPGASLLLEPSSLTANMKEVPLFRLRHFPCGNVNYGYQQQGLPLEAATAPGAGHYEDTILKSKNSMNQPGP
Chain of STK33 (Q9BYT3 whole entry): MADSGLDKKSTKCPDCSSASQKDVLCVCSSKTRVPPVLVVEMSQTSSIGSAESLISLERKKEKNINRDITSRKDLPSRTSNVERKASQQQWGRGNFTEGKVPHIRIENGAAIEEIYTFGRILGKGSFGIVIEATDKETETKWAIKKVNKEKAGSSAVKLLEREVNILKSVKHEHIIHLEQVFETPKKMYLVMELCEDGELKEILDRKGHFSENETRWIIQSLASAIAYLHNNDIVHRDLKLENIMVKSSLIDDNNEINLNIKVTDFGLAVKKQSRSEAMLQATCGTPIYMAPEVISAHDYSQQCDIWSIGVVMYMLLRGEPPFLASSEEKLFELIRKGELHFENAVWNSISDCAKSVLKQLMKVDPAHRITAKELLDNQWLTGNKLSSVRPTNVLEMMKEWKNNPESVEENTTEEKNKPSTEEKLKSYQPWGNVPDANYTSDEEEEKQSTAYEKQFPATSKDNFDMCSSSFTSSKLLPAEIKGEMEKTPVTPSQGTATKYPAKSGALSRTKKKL
Chain of ROCK1 (Q13464 whole entry): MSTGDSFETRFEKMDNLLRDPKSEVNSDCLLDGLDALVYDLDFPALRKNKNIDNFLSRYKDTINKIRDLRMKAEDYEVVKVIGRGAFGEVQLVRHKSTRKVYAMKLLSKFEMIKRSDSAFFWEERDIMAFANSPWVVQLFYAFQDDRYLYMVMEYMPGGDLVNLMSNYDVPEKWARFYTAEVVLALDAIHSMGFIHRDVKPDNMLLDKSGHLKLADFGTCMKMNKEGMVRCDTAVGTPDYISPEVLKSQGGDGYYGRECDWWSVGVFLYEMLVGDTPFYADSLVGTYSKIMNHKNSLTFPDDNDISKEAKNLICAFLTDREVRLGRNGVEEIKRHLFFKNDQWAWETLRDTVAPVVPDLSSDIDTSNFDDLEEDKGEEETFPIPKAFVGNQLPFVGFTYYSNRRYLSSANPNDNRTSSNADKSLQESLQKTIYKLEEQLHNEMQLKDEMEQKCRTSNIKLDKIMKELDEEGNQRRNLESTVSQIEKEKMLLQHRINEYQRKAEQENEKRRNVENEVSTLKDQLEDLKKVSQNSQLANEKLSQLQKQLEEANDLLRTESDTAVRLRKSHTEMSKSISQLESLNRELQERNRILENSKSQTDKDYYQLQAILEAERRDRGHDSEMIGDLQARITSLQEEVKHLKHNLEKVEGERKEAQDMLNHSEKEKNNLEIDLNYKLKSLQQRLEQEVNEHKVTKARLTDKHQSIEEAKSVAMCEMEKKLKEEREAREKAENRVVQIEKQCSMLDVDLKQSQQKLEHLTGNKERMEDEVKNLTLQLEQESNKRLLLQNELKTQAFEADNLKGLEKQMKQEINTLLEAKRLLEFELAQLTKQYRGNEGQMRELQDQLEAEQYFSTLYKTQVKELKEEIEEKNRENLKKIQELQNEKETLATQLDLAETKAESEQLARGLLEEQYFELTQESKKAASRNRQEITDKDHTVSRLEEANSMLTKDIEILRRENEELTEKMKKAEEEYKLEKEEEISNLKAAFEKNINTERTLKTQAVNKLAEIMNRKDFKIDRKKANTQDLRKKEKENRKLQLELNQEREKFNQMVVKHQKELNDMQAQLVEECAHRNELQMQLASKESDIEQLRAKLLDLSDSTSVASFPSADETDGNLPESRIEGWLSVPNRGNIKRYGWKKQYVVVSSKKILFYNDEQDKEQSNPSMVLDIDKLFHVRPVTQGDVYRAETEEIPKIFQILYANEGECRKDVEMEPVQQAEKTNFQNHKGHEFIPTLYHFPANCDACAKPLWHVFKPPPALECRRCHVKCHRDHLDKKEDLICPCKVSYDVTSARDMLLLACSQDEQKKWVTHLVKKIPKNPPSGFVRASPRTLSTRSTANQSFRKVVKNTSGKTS
Chain of JNK3 (P53779 whole entry): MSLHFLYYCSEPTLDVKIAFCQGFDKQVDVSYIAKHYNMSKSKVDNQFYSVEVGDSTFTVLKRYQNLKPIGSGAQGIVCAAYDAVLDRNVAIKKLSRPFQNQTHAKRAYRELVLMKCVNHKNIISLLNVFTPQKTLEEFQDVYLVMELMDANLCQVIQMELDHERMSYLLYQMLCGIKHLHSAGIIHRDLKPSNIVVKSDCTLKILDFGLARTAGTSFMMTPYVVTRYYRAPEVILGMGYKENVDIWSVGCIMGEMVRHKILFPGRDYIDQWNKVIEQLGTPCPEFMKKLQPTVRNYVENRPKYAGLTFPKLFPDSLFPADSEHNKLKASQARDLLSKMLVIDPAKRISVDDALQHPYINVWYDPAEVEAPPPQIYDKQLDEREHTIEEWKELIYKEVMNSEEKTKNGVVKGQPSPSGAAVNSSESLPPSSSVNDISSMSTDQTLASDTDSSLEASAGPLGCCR

COC(=O)c1ccc2[nH]c(C3CCN(c4ncnc5[nH]cc(Cl)c45)CC3)nc2c1 [Compound R10015, Methyl 2-(1-(5-chloro-7H-pyrrolo[2,3-d]pyrimidin-4-yl)piperidin-4-yl)-1H-benzo[d]imidazole-5-carboxylate]
viral late DNA synthesis [1]: inhibited
inhibition of HSV-1 (viral plaques) [2]: inhibition
cytotoxicity [3]: no detectable cytotoxicity
activity at 1 µM [4]: 95.5%
activity at 1 µM [5]: 85.7%
activity at 1 µM [6]: 47.5%
activity at 1 µM [7]: 42.3%
activity at 1 µM [8]: 56.5%
IC50 [9]: ~10 µM
